For 15 compounds, IC50, inhibition and Ratio IC50 results are on record in ChEMBL document CHEMBL4823290, “Design and Synthesis of TRAP1 Selective Inhibitors: H-Bonding with Asn171 Residue in TRAP1 Increases Paralog Selectivity” (ACS Med Chem Lett, 2021).

pIC50: −log10 of the molar value. The source made the active and inactive calls. No cut-off for these calls is given here.

The target of the first assay is Heat shock protein HSP 90-alpha (Homo sapiens, UniProt P07900). Description: Inhibition of PU-H71-FITC3 binding to recombinant N-terminal HSP90alpha (unknown origin) incubated for 2 hrs by fluorescence polarization assay. (Fluorescence polarisation rises when a labelled molecule tumbles more slowly, as on binding a larger partner.)
By pIC50 is commonly meant the negative decadic logarithm of the IC50, by convention in mol/L. On to `Nc1nc(Cl)c2c(n1)N(Cc1ccc3c(c1)OCO3)C(=O)C2`, for which the pIC50 was 5.52.

`Nc1nc(Cl)c2c(n1)N(Cc1ccc(Br)cc1F)C(=O)C2`: the pIC50 is < 5.30.

With `Nc1nc(Cl)c2nc(O)n(Cc3ccc(Br)cc3F)c2n1`, the negative logarithm of the IC50 (pIC50) was 5.95.

As to `Nc1nc(Cl)c2nc(S)n(Cc3c(F)ccc(F)c3F)c2n1`, the negative logarithm of the IC50 (pIC50) is < 5.30.

On to `Nc1nc(Cl)c2nc(S)n(Cc3ccc(C(F)(F)F)cc3)c2n1`, for which the pIC50 was < 5.30.

As for `COc1cc(F)c(Cn2c(S)nc3c(Cl)nc(N)nc32)c(F)c1`, the pIC50 is < 5.30.

Regarding `Nc1nc(Cl)c2nc(S)n(Cc3cc(C(F)(F)F)ccc3Cl)c2n1`, the pIC50 was < 5.30.

For `Nc1nc(Cl)c2nc(O)n(Cc3cc(C(F)(F)F)ccc3Cl)c2n1`, the pIC50 was 5.48.

Turning to `Cc1ccc(Cn2c(O)nc3c(Cl)nc(N)nc32)c(F)c1`, the negative logarithm of the IC50 (pIC50) was 6.27.

In the case of `Nc1nc(Cl)c2nc(N)n(Cc3ccc(Br)cc3F)c2n1`, the negative logarithm of the IC50 (pIC50) is < 5.30.

For `Cc1ccc(CN2C(=O)Cc3c(Cl)nc(N)nc32)c(F)c1`, the pIC50 is 5.90.

Take `Nc1nc(Cl)c2c(n1)N(Cc1cc(C(F)(F)F)ccc1Cl)C(=O)C2`: the negative-log IC50 (pIC50) is < 5.30.

`Nc1nc(Cl)c2nc(O)n(Cc3ccc(F)c(Cl)c3)c2n1`: the pIC50 was < 5.30.

As to `Nc1nc(Cl)c2c(n1)N(Cc1ccc(C(F)(F)F)cc1)C(=O)C2`, the pIC50 was < 5.30.

The target of another assay is T1, Heat shock protein 75 kDa, mitochondrial (Homo sapiens, UniProt Q12931).
T1 sequence (Q12931 whole entry): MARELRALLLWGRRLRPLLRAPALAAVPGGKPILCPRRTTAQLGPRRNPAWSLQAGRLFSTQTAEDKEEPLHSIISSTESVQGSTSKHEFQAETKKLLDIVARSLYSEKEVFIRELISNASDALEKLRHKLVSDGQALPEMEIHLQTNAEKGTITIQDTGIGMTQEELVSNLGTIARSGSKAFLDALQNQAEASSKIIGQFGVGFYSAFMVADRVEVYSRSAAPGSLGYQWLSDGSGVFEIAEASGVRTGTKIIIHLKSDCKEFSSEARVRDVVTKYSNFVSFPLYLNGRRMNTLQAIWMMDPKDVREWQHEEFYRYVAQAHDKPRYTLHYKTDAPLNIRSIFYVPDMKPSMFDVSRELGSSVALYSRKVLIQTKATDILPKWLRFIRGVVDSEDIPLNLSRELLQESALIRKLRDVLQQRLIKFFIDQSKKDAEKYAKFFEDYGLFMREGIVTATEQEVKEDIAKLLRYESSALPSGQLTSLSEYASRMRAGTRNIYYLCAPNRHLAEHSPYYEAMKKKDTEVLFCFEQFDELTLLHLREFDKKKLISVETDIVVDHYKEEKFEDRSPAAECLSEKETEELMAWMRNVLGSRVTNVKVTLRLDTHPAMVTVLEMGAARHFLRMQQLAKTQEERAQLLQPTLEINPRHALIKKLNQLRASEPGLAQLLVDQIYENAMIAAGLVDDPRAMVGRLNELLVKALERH
The assay is described as follows: Inhibition of PU-H71-FITC3 binding to recombinant full length TRAP1 (unknown origin) incubated for 2 hrs by fluorescence polarization assay.
For the compound `Nc1nc(Cl)c2c(n1)N(Cc1ccc3c(c1)OCO3)C(=O)C2`, the negative logarithm of the IC50 (pIC50) was 6.47.

On to `Nc1nc(Cl)c2c(n1)N(Cc1ccc(Br)cc1F)C(=O)C2`, for which the negative logarithm of the IC50 (pIC50) is 7.00.

With `Nc1nc(Cl)c2nc(O)n(Cc3ccc(Br)cc3F)c2n1`, the negative logarithm of the IC50 (pIC50) was 7.24.

On to `Nc1nc(Cl)c2nc(S)n(Cc3c(F)ccc(F)c3F)c2n1`, for which the pIC50 was 6.41.

For `Nc1nc(Cl)c2nc(S)n(Cc3ccc(C(F)(F)F)cc3)c2n1`, the negative-log IC50 (pIC50) is 6.38.

As for `COc1cc(F)c(Cn2c(S)nc3c(Cl)nc(N)nc32)c(F)c1`, the negative logarithm of the IC50 (pIC50) was 6.75.

Regarding `Nc1nc(Cl)c2nc(S)n(Cc3cc(C(F)(F)F)ccc3Cl)c2n1`, the pIC50 was 5.91.

In the case of `Nc1nc(Cl)c2nc(O)n(Cc3cc(C(F)(F)F)ccc3Cl)c2n1`, the negative logarithm of the IC50 (pIC50) was 6.77.

As to `Cc1ccc(Cn2c(O)nc3c(Cl)nc(N)nc32)c(F)c1`, the pIC50 was 7.20.

In the case of `Nc1nc(Cl)c2nc(N)n(Cc3ccc(Br)cc3F)c2n1`, the negative logarithm of the IC50 (pIC50) is 6.32.

Turning to `Cc1ccc(CN2C(=O)Cc3c(Cl)nc(N)nc32)c(F)c1`, the pIC50 was 7.05.

Regarding `Nc1nc(Cl)c2c(n1)N(Cc1cc(C(F)(F)F)ccc1Cl)C(=O)C2`, the pIC50 is 5.75.

For the compound `Nc1nc(Cl)c2nc(O)n(Cc3ccc(F)c(Cl)c3)c2n1`, the pIC50 is 6.14.

Regarding `Nc1nc(Cl)c2c(n1)N(Cc1ccc(C(F)(F)F)cc1)C(=O)C2`, the negative-log IC50 (pIC50) was 5.98.

The target in another assay is T2, Endoplasmin (Homo sapiens, UniProt P14625). Description: Inhibition of Grp94 in human HeLa cells assessed as reduction in cdk4 protein expression at 25 uM after 12 hrs by Western blotting analysis. The class given is cell-based. In general terms: Immunoblotting shows a protein as a band on a membrane.
T2 sequence (P14625 whole entry): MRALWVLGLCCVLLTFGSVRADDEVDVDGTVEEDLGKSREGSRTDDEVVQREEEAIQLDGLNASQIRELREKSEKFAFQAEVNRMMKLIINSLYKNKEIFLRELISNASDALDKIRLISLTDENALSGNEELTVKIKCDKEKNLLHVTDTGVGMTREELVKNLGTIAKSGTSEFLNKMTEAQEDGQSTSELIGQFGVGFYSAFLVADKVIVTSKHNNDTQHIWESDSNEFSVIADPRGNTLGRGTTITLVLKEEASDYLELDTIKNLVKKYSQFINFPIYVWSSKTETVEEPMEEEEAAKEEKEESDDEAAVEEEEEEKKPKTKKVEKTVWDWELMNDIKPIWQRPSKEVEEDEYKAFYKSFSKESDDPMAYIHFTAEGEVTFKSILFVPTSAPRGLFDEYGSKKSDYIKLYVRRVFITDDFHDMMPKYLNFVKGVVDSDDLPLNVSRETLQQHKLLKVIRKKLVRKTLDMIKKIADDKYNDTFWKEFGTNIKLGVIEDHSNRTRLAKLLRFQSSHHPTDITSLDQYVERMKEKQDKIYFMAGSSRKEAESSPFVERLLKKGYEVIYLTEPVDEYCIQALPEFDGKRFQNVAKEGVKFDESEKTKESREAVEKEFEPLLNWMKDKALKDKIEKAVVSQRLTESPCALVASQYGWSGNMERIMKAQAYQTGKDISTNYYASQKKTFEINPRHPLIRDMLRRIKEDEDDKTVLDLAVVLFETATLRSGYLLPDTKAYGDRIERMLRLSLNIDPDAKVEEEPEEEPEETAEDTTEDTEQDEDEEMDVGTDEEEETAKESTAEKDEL
Regarding `CC(C)NCCCn1c(Sc2cc3c(cc2I)OCO3)nc2c(N)ncnc21`, the inhibition result was “Active”.

Another assay is filed under the species Homo sapiens. The assay is described as follows: Selectivity index, ratio of IC50 for inhibition of HSP90alpha (unkown origin) to IC50 for inhibition of TRAP1 (unknown origin).
In the case of `Nc1nc(Cl)c2c(n1)N(Cc1ccc3c(c1)OCO3)C(=O)C2`, the Ratio IC50 was 8.8.

As to `Nc1nc(Cl)c2c(n1)N(Cc1ccc(Br)cc1F)C(=O)C2`, the Ratio IC50 is > 50.3.

As for `Nc1nc(Cl)c2nc(O)n(Cc3ccc(Br)cc3F)c2n1`, the Ratio IC50 was 19.6.

Take `Nc1nc(Cl)c2nc(S)n(Cc3c(F)ccc(F)c3F)c2n1`: the Ratio IC50 was > 12.8.

For `Nc1nc(Cl)c2nc(S)n(Cc3ccc(C(F)(F)F)cc3)c2n1`, the Ratio IC50 was > 12.1.

Turning to `COc1cc(F)c(Cn2c(S)nc3c(Cl)nc(N)nc32)c(F)c1`, the Ratio IC50 is > 28.1.

For the compound `Nc1nc(Cl)c2nc(S)n(Cc3cc(C(F)(F)F)ccc3Cl)c2n1`, the Ratio IC50 is > 4.1.

For `Nc1nc(Cl)c2nc(O)n(Cc3cc(C(F)(F)F)ccc3Cl)c2n1`, the Ratio IC50 came to 19.5.

Consider `Cc1ccc(Cn2c(O)nc3c(Cl)nc(N)nc32)c(F)c1`, for which the Ratio IC50 worked out at 8.7.

Turning to `Nc1nc(Cl)c2nc(N)n(Cc3ccc(Br)cc3F)c2n1`, the Ratio IC50 was > 10.5.

For `Cc1ccc(CN2C(=O)Cc3c(Cl)nc(N)nc32)c(F)c1`, the Ratio IC50 came to 13.9.

As to `Nc1nc(Cl)c2c(n1)N(Cc1cc(C(F)(F)F)ccc1Cl)C(=O)C2`, the Ratio IC50 was > 2.8.

With `Nc1nc(Cl)c2nc(O)n(Cc3ccc(F)c(Cl)c3)c2n1`, the Ratio IC50 was > 6.9.

Take `Nc1nc(Cl)c2c(n1)N(Cc1ccc(C(F)(F)F)cc1)C(=O)C2`: the Ratio IC50 was > 4.8.

The target in a further assay is T2, Endoplasmin. Description: Inhibition of PU-H71-FITC3 binding to recombinant N-terminal Grp94 (unknown origin) incubated for 2 hrs by fluorescence polarization assay.
`Nc1nc(Cl)c2c(n1)N(Cc1ccc3c(c1)OCO3)C(=O)C2`: the pIC50 was 5.50.

`Nc1nc(Cl)c2c(n1)N(Cc1ccc(Br)cc1F)C(=O)C2`: the negative logarithm of the IC50 (pIC50) is 5.90.

For the compound `Nc1nc(Cl)c2nc(O)n(Cc3ccc(Br)cc3F)c2n1`, the pIC50 is 6.31.

On to `Nc1nc(Cl)c2nc(S)n(Cc3c(F)ccc(F)c3F)c2n1`, for which the pIC50 is 5.46.

With `Nc1nc(Cl)c2nc(S)n(Cc3ccc(C(F)(F)F)cc3)c2n1`, the pIC50 was 5.43.

With `COc1cc(F)c(Cn2c(S)nc3c(Cl)nc(N)nc32)c(F)c1`, the negative-log IC50 (pIC50) is 6.08.

On to `Nc1nc(Cl)c2nc(S)n(Cc3cc(C(F)(F)F)ccc3Cl)c2n1`, for which the negative-log IC50 (pIC50) was < 5.30.

Take `Nc1nc(Cl)c2nc(O)n(Cc3cc(C(F)(F)F)ccc3Cl)c2n1`: the pIC50 was 5.73.

Turning to `Cc1ccc(Cn2c(O)nc3c(Cl)nc(N)nc32)c(F)c1`, the pIC50 was 6.50.

Consider `Nc1nc(Cl)c2nc(N)n(Cc3ccc(Br)cc3F)c2n1`, for which the negative-log IC50 (pIC50) is 5.46.

`Cc1ccc(CN2C(=O)Cc3c(Cl)nc(N)nc32)c(F)c1`: the negative-log IC50 (pIC50) is 5.97.

Take `Nc1nc(Cl)c2c(n1)N(Cc1cc(C(F)(F)F)ccc1Cl)C(=O)C2`: the pIC50 was < 5.30.

For the compound `Nc1nc(Cl)c2nc(O)n(Cc3ccc(F)c(Cl)c3)c2n1`, the pIC50 is < 5.30.

Regarding `Nc1nc(Cl)c2c(n1)N(Cc1ccc(C(F)(F)F)cc1)C(=O)C2`, the pIC50 was < 5.30.

The next assay deals with T2, Endoplasmin. Description: Inhibition of Grp94 in human HeLa cells assessed as reduction in HER2 protein expression at 25 uM after 12 hrs by Western blotting analysis. The class given is cell-based.
`CC(C)NCCCn1c(Sc2cc3c(cc2I)OCO3)nc2c(N)ncnc21`: the inhibition result was “Active”.

The species entered for a further assay is Homo sapiens. The assay is described as follows: Selectivity index, ratio of IC50 for inhibition of Grap94 (unkown origin) to IC50 for inhibition of TRAP1 (unknown origin).
Regarding `Nc1nc(Cl)c2c(n1)N(Cc1ccc3c(c1)OCO3)C(=O)C2`, the Ratio IC50 was determined as 9.4.

Consider `Nc1nc(Cl)c2c(n1)N(Cc1ccc(Br)cc1F)C(=O)C2`, for which the Ratio IC50 stood at 12.7.

Consider `Nc1nc(Cl)c2nc(O)n(Cc3ccc(Br)cc3F)c2n1`, for which the Ratio IC50 came to 8.5.

With `Nc1nc(Cl)c2nc(S)n(Cc3c(F)ccc(F)c3F)c2n1`, the Ratio IC50 was 8.8.

On to `Nc1nc(Cl)c2nc(S)n(Cc3ccc(C(F)(F)F)cc3)c2n1`, for which the Ratio IC50 was found to be 9.1.

With `COc1cc(F)c(Cn2c(S)nc3c(Cl)nc(N)nc32)c(F)c1`, the Ratio IC50 came to 4.7.

Consider `Nc1nc(Cl)c2nc(S)n(Cc3cc(C(F)(F)F)ccc3Cl)c2n1`, for which the Ratio IC50 is > 4.1.

With `Nc1nc(Cl)c2nc(O)n(Cc3cc(C(F)(F)F)ccc3Cl)c2n1`, the Ratio IC50 came to 11.

Consider `Cc1ccc(Cn2c(O)nc3c(Cl)nc(N)nc32)c(F)c1`, for which the Ratio IC50 turned out to be 5.1.

Regarding `Nc1nc(Cl)c2nc(N)n(Cc3ccc(Br)cc3F)c2n1`, the Ratio IC50 came to 7.2.

In the case of `Cc1ccc(CN2C(=O)Cc3c(Cl)nc(N)nc32)c(F)c1`, the Ratio IC50 worked out at 11.8.

Regarding `Nc1nc(Cl)c2c(n1)N(Cc1cc(C(F)(F)F)ccc1Cl)C(=O)C2`, the Ratio IC50 was > 2.8.

As to `Nc1nc(Cl)c2nc(O)n(Cc3ccc(F)c(Cl)c3)c2n1`, the Ratio IC50 is > 6.9.

Regarding `Nc1nc(Cl)c2c(n1)N(Cc1ccc(C(F)(F)F)cc1)C(=O)C2`, the Ratio IC50 was > 4.8.
